# Measured values: patent publication US5070210A, “Novel ketenimines as intermediates for insecticides” (ICI Americas Inc., priority 1990, dated 1991)
# Tests used:
# Type in all cases: in vivo
# [1] = tested on: Maize weevil [Sitophilus Zeamais (Motschulsky)]; assay: Maize weevil insecticidal test; settings: adult weevils, percent in solution; 48 hours
# Outline: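 LC50, in percent of compound in solution, was derived from dosage-mortality curves after 48 h at about 25 °C. Ten adult weevils per container fed on four corn seeds briefly immersed in acetone:water (50:50) solutions of up to 0.01% and dried.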
# [2] = tested on: Cabbage Looper [Trichoplusia ni (Hubner)]; assay: Cabbage looper insecticidal test; settings: second-instar larvae, percent in solution; 3-5 days
# Outline: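 Compounds in 50-50 acetone-water were applied by dipping squash cotyledons (about 1×1.5 in) for 2-3 s; dried leaves went into petri dishes on moist filter paper with 5 second-instar larvae under high humidity. Mortality was scored after 3-5 days; LC50 from dosage-mortality curves, as percent compound in solution.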
# [3] = tested on: Tobacco Budworm [Heliothis virescens (Fabricius)] eggs; assay: Tobacco budworm egg test; settings: 2-day old eggs, percent in solution
# Outline: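 Paper towel patches bearing 2-day old eggs were dipped in acetone solutions of compound, then set in petri dishes over larval rearing medium at 78° F. Mortality was scored once all control eggs had hatched and larvae were feeding. LC50, from dosage-mortality curves, is given as percent compound in solution.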
# [4] = tested on: Aster Leafhopper [Macrosteles fascifrens (Stal)]; assay: Aster leafhopper insecticidal test; settings: adults/nymphs, percent in solution; 48 hours
# Method: The compounds in Tables 1 and 2 above were tested for insecticidal activity using the following testing procedures. LC50 values, based on the results of these tests and calculated according to dosage-mortality curves, are expressed in Table 3.
# Aster Leafhopper [Macrosteles fascifrens (Stal)]
# Oat seedlings (Avena sp) were grown in a commercial potting soil in cups. When the plants were approximately 10 cm tall they were thinned to three plants per cup and dipped for 2-3 seconds in 50-50 acetone-water solutions of the test compounds. When the plants had dried, a clear plastic tube was placed over them and the bottom end pressed into the cup. Ten aster leafhopper adults/nymphs were then placed in each tube and the tops of the tubes covered with white organdy cloth. Mortality counts were made after 48 hours. Test concentrations ranged from 0.05% down to that at which 50% mortality occurred. The LC50 values are expressed below in Table 3 under the heading "LH" in terms of the percent of the test compound in the solution.
# [5] = tested on: Housefly [Musca domestica]; assay: Housefly insecticidal test; settings: μg per 25 female flies; mortality after 48 hours
# Outline: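 Dose range started at 100 μg per 25 female flies and went downward. Insects (1-2 days old) contacted a dried acetone/peanut-oil deposit in dishes; LC50 values come from dosage-mortality curves at 48 h.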
SMILES,"LC50, MW [1] [%]","LC50, CL [2] [%]","LC50, TBW, E (TBW-E) [3] [%]","LC50, LH [4] [%]","LC50, HF [5] [µg]"
C=C(C)C(=Nc1ccc(Cl)cc1)OCc1cccc(Oc2ccccc2)c1 [Compound 6],> 0.01,0.02,0.015,> 0.05,17
CCC(=Nc1ccc(Cl)cc1)OCc1cccc(Oc2ccccc2)c1 [Compound 11],> 0.01,0.025,> 0.1,> 0.05,6
CC(C)C(=Nc1cc(Cl)ccc1Cl)OCc1cccc(Oc2ccccc2)c1 [Compound 13],> 0.01,0.014,> 0.1,> 0.05,> 100
CC(C)C(=Nc1ccccc1Cl)OCc1cccc(Oc2ccccc2)c1 [Compound 17],> 0.01,0.03,> 0.1,> 0.05,75
COc1ccc(OC)c(N=C(OCc2cccc(Oc3ccccc3)c2)C(C)C)c1 [Compound 69],,0.09,> 0.1,> 0.05,> 100
CC(C)C(=Nc1ccc(OC(F)(F)F)cc1)OCc1cccc(Oc2ccccc2)c1 [Compound 70],,< 0.1,0.01,> 0.05,< 100
CC(C)C(=Nc1ccc(C(F)(F)F)c(Cl)c1)OCc1cccc(Oc2ccccc2)c1 [Compound 83],,0.007,> 0.1,> 0.05,> 100
Cc1ccc(N=C(OCc2cccc(Oc3ccccc3)c2)C(C)C)cc1Cl [Compound 90],,> 0.1,0.016,0.001,> 100
COc1c(Cl)cc(N=C(OCc2cccc(Oc3ccccc3)c2)C(C)C)cc1Cl [Compound 91],,0.002,> 0.01,0.003,37
CC(C)C(=Nc1c(Cl)cc([N+](=O)[O-])cc1Cl)OCc1cccc(Oc2ccccc2)c1 [Compound 92],,0.015,> 0.1,> 0.05,> 100
Clc1ccc(N=C(OCc2cccc(Oc3ccccc3)c2)C(Cl)Cl)c2ccccc12 [Compound 98],,0.016,0.1,> 0.05,> 100
Cc1c(Cl)cc(N=C(OCc2cccc(Oc3ccccc3)c2)C(C)C)cc1Cl [Compound 101],,0.0045,> 0.1,0.0008,81
CCOC(=O)c1cc(N=C(OCc2cccc(Oc3ccccc3)c2)C(C)C)ccc1Cl [Compound 102],,0.075,> 0.1,> 0.05,> 100
CC(C)(Cl)C(=Nc1ccc(C#N)c(Cl)c1)OCc1cccc(Oc2ccccc2)c1 [Compound 108],,0.002,> 0.1,> 0.01,44
CC(C)C(=Nc1c(F)cc(F)cc1Br)OCc1cccc(Oc2ccccc2)c1 [Compound 129],,0.005,> 0.1,0.01,> 100
CC(C)C(=Nc1ccc(Br)cc1)OCc1cccc(Oc2ccccc2)c1 [Compound 131],,0.0045,> 0.1,0.005,17
CC(C)(C)C(=Nc1ccc(Br)cc1)OCc1cccc(Oc2ccccc2)c1 [Compound 135],,0.004,> 0.1,> 0.05,> 100
CC(C)C(=Nc1ccc(I)cc1)OCc1cccc(Oc2ccccc2)c1 [Compound 137],,0.003,0.04,0.008,18
CCc1cccc(N=C(OCc2cccc(Oc3ccccc3)c2)C(C)C)c1 [Compound 154],,0.004,0.1,> 0.05,25

SMILES,"LC50, MW [1] [%]","LC50, CL [2] [%]","LC50, TBW, E (TBW-E) [3] [%]","LC50, LH [4] [%]","LC50, HF [5] [µg]"
CCc1ccc(N=C(OCc2cccc(Oc3ccc(F)cc3)c2)C(C)C)cc1 [Compound 159],,0.001,0.08,0.0025,25
CCc1ccc(N=C(OCc2cccc(Oc3ccccc3)c2)C(C)C)cc1 [Compound 161],,0.0014,0.07,0.002,15
CCc1cccc(N=C(OCc2cccc(Oc3ccccc3)c2)C(C)(C)C)c1 [Compound 162],,0.035,> 0.1,> 0.05,> 100
CC(C)C(=Nc1ccc2c(c1)CCC2)OCc1cccc(Oc2ccccc2)c1 [Compound 187],,0.0025,> 0.1,0.0025,15
CCCC(=Nc1ccc2c(c1)OCO2)OCc1cccc(Oc2ccccc2)c1 [Compound 188],,0.002,> 0.1,> 0.05,12
Cc1ccc(Oc2cccc(COC(=Nc3ccc(F)c(Cl)c3)C(C)C)c2)cc1 [Compound 225],,0.0025,> 0.1,> 0.05,> 100
CC(C)C(=Nc1ccc(C(C)C)cc1)OCc1cccc(Oc2ccc(F)cc2)c1 [Compound 228],,0.0025,> 0.1,> 0.05,> 100
CC(C)C(=Nc1ccc2c(c1)OC(C)(C)O2)OCc1ccc(F)c(Oc2ccccc2)c1 [Compound 242],,0.00025,> 0.1,> 0.05,< 100
CSc1ccc(Oc2cccc(COC(=Nc3ccc(F)cc3)C(C)C)c2)cc1 [Compound 257],,0.008,> 0.1,> 0.05,> 100
Fc1ccc(Oc2cccc(COC(=Nc3ccc(F)c(Cl)c3)C(F)(F)C(F)(F)F)c2)cc1 [Compound 258],,0.003,> 0.1,> 0.05,> 100
CC(C)C(=Nc1cc(F)ccc1Cl)OCc1ccc(F)c(Oc2ccc(F)cc2)c1 [Compound 303],,0.0015,> 0.1,0.0005,> 100
CC(C)C(=Nc1ccc(Cl)cc1)OC(C)c1cccc(Oc2ccccc2)c1 (centres unmarked) [Compound 457],,0.009,> 0.05,> 0.05,> 100
CC(C)C(=Nc1ccc2c(c1)OCO2)OCc1cccc(Oc2ccc(F)cc2)n1 [Compound 465],,0.0017,0.027,0.0025,8
COCc1c(F)c(F)c(COC(=Nc2ccc(F)c(Cl)c2F)C(C)C)c(F)c1F [Compound 522],> 0.01,> 0.1,> 0.1,0.05,
CC(C)C(=Nc1cccc(C(F)(F)F)c1)OCc1cc(Oc2ccc(F)cc2)ccn1 [Compound 528],> 0.01,0.0075,> 0.1,> 0.05,
CC(C)C(=Nc1ccc(F)c(Cl)c1)OCc1cc(Oc2ccc(F)cc2)ccn1 [Compound 529],> 0.01,> 0.0025,> 0.1,> 0.05,
CC(C)C(=Nc1ccc(F)c(Cl)c1)OCc1cccc(Cc2ccccc2)c1 [Compound 541],> 0.01,0.001,,> 0.05,< 100
CC(C)C(=Nc1ccc(C(F)(F)F)cc1)OCc1cccc(Cc2ccccc2)c1 [Compound 543],> 0.01,0.0008,,< 0.05,< 100
